Results on 15 compounds are retold here after patent publication US8497376B2, “Inhibitors of c-fms kinase” (Janssen Pharmaceutica N.V., priority 2007, dated 2013).

Molecules are shown by their SMILES. Structures can show the parent of a compound that is named as a salt. Where two headings read alike, the source gives them in different places.

One assay concerns the target c-fms (Homo sapiens (Human), UniProt P07333). As to the kind of experiment: Autophosphorylation fluorescence polarization competition immunoassay for c-fms inhibition. Type of assay: biochemical. The following applies: 10 nM c-fms, 1 mM ATP; average of three independent measurements. As for the experimental part: The assay buffer used was 100 mM 4-(2-hydroxyethyl)piperazine1-ethanesulfonic acid (HEPES), pH 7.5, 1 mM 1,4-dithio-DL-threitol (DTT), 0.01% (v/v) Tween-20. Compounds were diluted in assay buffer containing 4% dimethylsulfoxide (DMSO) just prior to the assay. […] The kinase reaction was initiated by adding 2 μL of 5 mM ATP (Sigma) in assay buffer. The final concentrations in the assay were 10 nM c-fms, 1 mM ATP, 5 mM MgCl2, 2% DMSO. Control reactions were ran in each plate: in positive and negative control wells, assay buffer (made 4% in DMSO) was substituted for the compound; in addition, positive control wells received 1.2 μL of 50 mM ethylenediaminetetraaceticacid (EDTA). The plates were incubated at room temperature for 45 min. At the end of the incubation, the reaction was quenched with 1.2 μL of 50 mM EDTA (EDTA was not added to the positive control wells at this point; see above). Following a 5-min incubation, each well received 10 μL of a 1:1:3 mixture of anti-phosphotyrosine antibody, 10×, PTK green tracer, 10× (vortexed), FP dilution buffer, respectively (all from PanVera, cat. # P2837). The plate was covered, incubated for 30 min at room temperature and the fluorescence polarization was read on the Analyst. The instrument settings were: 485 nm excitation filter; 530 nm emission filter; Z height: middle of well; G factor: 0.93. […] The reported IC50 values are averages of three independent measurements.
For orientation: Polarisation of emitted light reports the rotation of a fluorescent probe.

The subject of assay [1] is mouse bone-marrow derived macrophages. In words: CSF-1-driven mouse bone-marrow derived macrophages assay (BrDU incorporation). It is filed as cell-based. The following applies: CSF-1-driven proliferation, 30 hrs culture. The procedure:
Macrophages were derived by culturing mouse bone marrow in alpha-MEM supplemented with 10% FCS and 50 ng/ml recombinant mouse CSF-1 in bacteriologic dishes. On the sixth day, macrophages were detached from dishes, washed, and resuspended to 0.05 million cells/ml in alpha-MEM containing 10% FCS. One hundred ul of cell suspension were distributed per well into 96 well culture plates. Wells were further supplemented with the addition of 50 ul media containing 15 ng/ml CSF-1, 3 uM Indomethacin, and 3× of a dilution series of test compounds. The cells were cultured for 30 hrs at 37 degrees and 5% CO2. During the final six hours, cultures were supplemented with an additional 30 ul of media containing a 1:500 dilution of bromodeoxyuridine (BrDU). At the end of the culture period, the plates were spun at 1000 RPM for 1 minute and 130 ul of media was removed with a pipet and replaced with 150 ul of fixative solution for 1 hour@room temperature. The fixative was then dispelled from the plates and the plates allowed to air dry. Incorporation of BrDU into the fixed, dried cells was quantified using a specific ELISA.

Sequence of c-fms (P07333 20-972): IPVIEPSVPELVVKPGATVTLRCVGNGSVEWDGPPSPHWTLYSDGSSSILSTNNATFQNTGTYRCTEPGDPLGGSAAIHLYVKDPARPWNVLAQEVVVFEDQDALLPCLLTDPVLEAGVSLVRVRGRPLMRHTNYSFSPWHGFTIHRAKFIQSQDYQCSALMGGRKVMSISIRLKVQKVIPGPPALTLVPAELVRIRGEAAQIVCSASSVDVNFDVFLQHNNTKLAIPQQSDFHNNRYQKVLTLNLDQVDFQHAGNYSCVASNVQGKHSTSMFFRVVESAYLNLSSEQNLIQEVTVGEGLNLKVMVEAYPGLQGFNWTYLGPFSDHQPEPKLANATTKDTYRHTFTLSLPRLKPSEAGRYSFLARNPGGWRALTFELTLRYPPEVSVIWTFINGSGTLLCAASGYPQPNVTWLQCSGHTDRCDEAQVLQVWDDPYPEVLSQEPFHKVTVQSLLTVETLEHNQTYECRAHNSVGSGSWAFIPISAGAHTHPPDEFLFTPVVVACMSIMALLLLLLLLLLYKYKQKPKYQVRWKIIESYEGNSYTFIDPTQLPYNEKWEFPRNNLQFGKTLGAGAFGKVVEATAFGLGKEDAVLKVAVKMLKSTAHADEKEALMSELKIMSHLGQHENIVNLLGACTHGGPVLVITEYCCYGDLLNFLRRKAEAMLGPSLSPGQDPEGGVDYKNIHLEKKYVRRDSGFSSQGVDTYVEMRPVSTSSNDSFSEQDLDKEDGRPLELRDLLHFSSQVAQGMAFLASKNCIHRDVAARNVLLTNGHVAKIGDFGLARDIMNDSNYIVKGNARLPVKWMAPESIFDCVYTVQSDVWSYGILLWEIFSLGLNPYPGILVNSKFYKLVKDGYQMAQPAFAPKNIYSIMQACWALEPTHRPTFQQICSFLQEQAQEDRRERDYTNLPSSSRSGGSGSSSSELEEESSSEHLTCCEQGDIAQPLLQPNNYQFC

What is called IC50 is the concentration needed to halve the response being measured. Turning to `C[C@@H]1C2CC[C@@H](O2)[C@H](C)[C@@]1(O)c1ccc(NC(=O)c2nc(C#N)c[nH]2)c(C2=CCC(C)(C)CC2)c1` [Example 29, 4-Cyano-N-(2-(4,4dimethylcyclohex-1-enyl)-4-[(3-exo)-3-hydroxy-(2-endo,4endo-dimethyl)-1,5-dimethyl-8-oxabicyclo[3.2.1]octan-3-yl)pheny]-1H-imidazole-2-carboxamide], the IC50 at c-fms is 14 nM; in assay [1] (Mus musculus, BMDM), 88 nM.

Take `CC1(C)CC=C(c2cc(C3CC(C)(C)S(=O)(=O)C(C)(C)C3)ccc2NC(=O)c2nc(C#N)c[nH]2)CC1` [Example 22, 4-Cyano-1H-imidazole-2-carboxylic acid[2-(4,4-dimethyl-cyclohex-1-enyl)-4-(2,2,6,6-tetramethyl-1,1-dioxo-hexahydro-1λ^6-thiopyran-4-yl)-phenyl]-amide]: the IC50 at c-fms was 2 nM; in assay [1] (Mus musculus, BMDM), 3.6 nM.

As to `CC1(C)CC=C(c2nc(C3C[C@@]4(C)O[C@@](C)(C3)[C@H](O)[C@@H]4O)ccc2NC(=O)c2nc(C#N)c[nH]2)CC1` (stereo partly drawn) [Example 18, 4-Cyano-1H-imidazole-2-carboxylic acid[6-[(3-exo)-(6-exo,7-exo-dihydroxy-1,5-dimethyl-8-oxa-bicyclo[3.2.1]oct-3-yl)-2-(4,4-dimethyl-cyclohex-1-enyl)-pyridin-3-yl]-amidetrifluoroacetic acid saft and 4-Cyano-1H-imidazole-2-carboxylic acid[6-[(3-endo)-(6-exo,7-exo-dihydroxy-1,5-dimethyl-8-oxa-bicyclo[3.2.1]oct-3-yl)-2-(4,4-dimethyl-cyclohex-1-enyl)-pyridin-3-yl]-amidetrifluoroacetic acid salt], the IC50 on c-fms was found to be 0.72 nM; in assay [1] (Mus musculus, BMDM), 10 nM.

As for `CC1(C)CC=C(c2cc([C@@H]3C[C@@]4(C)O[C@@](C)(C3)[C@H](O)[C@@H]4O)ccc2NC(=O)c2nc(C#N)c[nH]2)CC1` [Example 13, 4-Cyano-1H-imidazole-2-carboxylic acid[4-(3-endo)-(6-exo,7-exo-dihydroxy-1,5-dimethyl-8-oxa-bicyclo[3.2.1]oct-3-yl)-2-(4,4-dimethyl-cyclohex-1-enyl)-phenyl]-amide], the IC50 at c-fms amounted to 0.81 nM; in assay [1] (Mus musculus, BMDM), 2.9 nM.

With `CC1(C)CC=C(c2cc(C3=C[C@@]4(CO)C=C[C@@](CO)(C3)O4)ccc2NC(=O)c2nc(C#N)c[nH]2)CC1` [Example 3, 4-Cyano-1H-imidazole-2-carboxylic acid[4-(1,5-bis-hydroxymethyl-8-oxa-bicyclo[3.2.1]octa-2,6-dien-3-yl)-2-(4,4-dimethyl-cyclohex-1-enyl)-phenyl]-amide], the IC50 came out at 0.65 nM at c-fms and 9.3 nM in assay [1] (Mus musculus, BMDM).

With `COC[C@@]12C=C[C@@](COC)(C[C@](O)(c3ccc(NC(=O)c4nc(C#N)c[nH]4)c(C4=CCC(C)(C)CC4)c3)C1)O2` [Example 1, 4-Cyano-1H-imidazole-2-carboxylic acid[2-(4,4-dimethyl-cyclohex-1-enyl)-4-[(3-exo)-3-hydroxy-1,5-bis-methoxymethyl-8-oxa-bicyclo[3.2.1]oct-6-en-3-yl]-phenyl]-amide], the concentration for half-maximal inhibition (IC50) worked out at 0.86 nM at c-fms and 3.2 nM in assay [1] (Mus musculus, BMDM).

In the case of `CC1(C)CC=C(c2cc([C@@]3(O)CC4C=C[C@H](C3)O4)ccc2NC(=O)c2nc(C#N)c[nH]2)CC1` [Example 27, 4-Cyano-N-(2-(4,4-dimethylcyclohex-1-enyl)-4-((3-exo)-3-hydroxy-8-oxabicyclo[3.2.1]oct-6-en-3-yl)phenyl)-1H-imidazole-2-carboxamide], the IC50 on c-fms turned out to be 0.66 nM; in assay [1] (Mus musculus, BMDM) it was 6.9 nM.

Compound `C[C@@H]1C2(C)C=C[C@@](C)(O2)[C@H](C)[C@@]1(O)c1ccc(NC(=O)c2nc(C#N)c[nH]2)c(C2=CCC(C)(C)CC2)c1` [Example 30, 4-Cyano-N-(2-(4,4dimethylcyclohex-1-enyl)-4-[(3-exo)-3-hydroxy-(2-endo,4-endo-dimethyl)-1,5-dimethyl-8-oxabicyclo[3.2.1]oct-6-en-3-yl)phenyl)-1H-imidazole-2-carboxamide] displayed an IC50 at c-fms of 99 nM.

Take `CC1(C)CC=C(c2cc(C3=C[C@@H]4C=C[C@H](C3)O4)ccc2NC(=O)c2ncc(C#N)[nH]2)CC1` [Example 26, N-(4-(8-oxabicyclo[3.2.1]octa-2,6-dien-3-yl)-2-(4,4-dimethylcyclohex-1-enyl)phenyl)-4-cyano-1H-imidazole-2-carboxamide (A) and N-(4-(8-oxabicyclo[3.2.1]octa-3,6-dien-3-yl)-2-(4,4dimethylcyclohex-1-enyl)phenyl)-4cyano-1H-imidazole-2-carboxamide (B)]: the IC50 turned out to be 7.1 nM at c-fms and 59 nM in assay [1] (read-out: BMDM IC50).

Consider `CC1(C)CC=C(c2cc([C@@]3(O)C[C@@]4(C)O[C@@](C)(C3)[C@H](O)[C@@H]4O)ccc2NC(=O)c2nc(C#N)c[nH]2)CC1` [Example 12], for which the IC50 on c-fms worked out at 0.66 nM; in assay [1] (Mus musculus, BMDM) it was 36 nM.

`CC1(C)CC=C(c2cc(C3C[C@](C)(CO)O[C@](C)(CO)C3)ccc2NC(=O)c2ncc(C#N)[nH]2)CC1` (stereo partly drawn) [Example 14, 4-Cyano-1H-imidazole-2-carboxylic acid[4-cis-(2-cis,6-cis-bis-hydroxymethyl-2,6-dimethyl-tetrahydro-pyran-4-yl)-2-(4,4-dimethyl-cyclohex-1-enyl)-phenyl]-amide (A) and 4-Cyano-1H-imidazole-2-carboxylic acid[4-trans-(2-cis,6-cis-bis-hydroxymethyl-2,6-dimethyl-tetrahydro-pyran-4-yl)-2-(4,4dimethyl-cyclohex-1-enyl)-phenyl]-amide (B)]: the concentration for half-maximal inhibition (IC50) was found to be 1.1 nM on c-fms and 4.7 nM in assay [1] (read-out: BMDM IC50).

As to `CC1(C)CC=C(c2cc([C@@H]3C[C@]4(CO)CC[C@](CO)(C3)O4)ccc2NC(=O)c2nc(C#N)c[nH]2)CC1` [Example 5, 4-Cyano-1H-imidazole-2-carboxylic acid[4-[(3-endo)-1,5-bis-hydroxymethyl-8-oxa-bicyclo[3.2.1]oct-3-yl]-2-(4,4-dimethyl-cyclohex-1-enyl)-phenyl]-amide], the IC50 on c-fms came out at 0.47 nM; in assay [1] (Mus musculus, BMDM), 4.7 nM.

With `C[C@]12CC(c3ccc(NC(=O)c4nc(C#N)c[nH]4)c(C4=CCCCC4)n3)C[C@](C)(O1)[C@H](O)[C@@H]2O` (stereo partly drawn) [Example 19, 4-Cyano-1H-imidazole-2-carboxylic acid[2-cyclohex-1-enyl-6-[(3-exo)-(6-exo,7-exo-dihydroxy-1,5-dimethyl-8-oxa-bicyclo[3.2.1]oct-3-yl]-pyridin-3-yl]-amidetrifluoroacetic acid salt and 4-Cyano-1H-imidazole-2-carboxylic acid[2-cyclohex-1-enyl-6-[(3-endo)-(6-exo,7-exo-dihydroxy-1,5-dimethyl-8-oxa-bicyclo[3.2.1]oct-3-yl]-pyridin-3-yl]-amidetrifluoroacetic acid salt], the IC50 on c-fms was 2.9 nM; in assay [1] (Mus musculus, BMDM) it was 27 nM.

Turning to `CC1(C)CC=C(c2nc(C3C[C@](C)(CO)O[C@](C)(CO)C3)ccc2NC(=O)c2nc(C#N)c[nH]2)CC1` (stereo partly drawn) [Example 20, 4-Cyano-1H-imidazole-2-carboxylic acid[(4-cis)-(2-cis,6-cis-bis-hydroxymethyl-2,6-dimethyl-tetrahydro-pyran-4-yl)-2-(4,4dimethyl-cyclohex-1-enyl)-pyridin-3-yl]-amide trifluoroacetic acid salt and 4-Cyano-1H-imidazole-2-carboxylic acid[(4-trans)-(2-cis,6-cis-bis-hydroxymethyl-2,6-dimethyl-tetrahydro-pyran-4-yl)-2-(4,4-dimethyl-cyclohex-1-enyl)-pyridin-3-yl]-amide trifluoroacetic acid salt], the IC50 at c-fms is 0.41 nM; in assay [1] (Mus musculus, BMDM) it was 6.5 nM.

The compound `CC1(C)CC=C(c2cc([C@]3(O)C[C@@]4(CO)C=C[C@@](CO)(C3)O4)ccc2NC(=O)c2nc(C#N)c[nH]2)CC1` [Example 2, 4-Cyano-1H-imidazole-2-carboxylic acid[2-(4,4-dimethyl-cyclohex-1-enyl)-4-((3-exo)-3-hydroxy-1,5-bis-hydroxymethyl-8-oxa-bicyclo[3.2.1]oct-6-en-3-yl)-phenyl]-amide] returned an IC50 in assay [1] (Mus musculus, BMDM) of 37 nM.
